Test system: Adult L. serricata (blowflies)
Test: Test A: adult blowflies on blood agar containing test compound, scored by number of dead flies
Format: in vivo
Settings: 4 flies in test
Procedure: Adult L. serricata (blowflies): Adult flies are placed on beds of blood agar (in individual test wells; 4 flies per well) in which test compound, (3-bromo-N-[4-chloro-2-methyl-6-[(methylamino)carbonyl]phenyl]-1-(3-chloro-2-pyridinyl)-1H-pyrazole-5-carboxamide), was dissolved/suspended prior to hardening of agar. Flies can take up test compound by both ingestion and contact. Assays are scored by number of dead flies at 2 hours, 4 hours, and 24 hours.

| Compound | Number dead flies at 2 hours (Rate 1 ppm in blood agar) | Number dead flies at 4 hours (Rate 1 ppm in blood agar) | Number dead flies at 24 hours (Rate 1 ppm in blood agar) | Number dead flies at 2 hours (Rate 10 ppm in blood agar) | Number dead flies at 4 hours (Rate 10 ppm in blood agar) | Number dead flies at 24 hours (Rate 10 ppm in blood agar) | Number dead flies at 2 hours (Rate 25 ppm in blood agar) | Number dead flies at 4 hours (Rate 25 ppm in blood agar) | Number dead flies at 24 hours (Rate 25 ppm in blood agar) | Number dead flies at 2 hours (Rate 50 ppm in blood agar) | Number dead flies at 4 hours (Rate 50 ppm in blood agar) | Number dead flies at 24 hours (Rate 50 ppm in blood agar) | Number dead flies at 2 hours (Rate 100 ppm in blood agar) | Number dead flies at 4 hours (Rate 100 ppm in blood agar) | Number dead flies at 24 hours (Rate 100 ppm in blood agar) |
| --- | --- | --- | --- | --- | --- | --- | --- | --- | --- | --- | --- | --- | --- | --- | --- |
| CCOP(=S)(OCC)Oc1nc(Cl)c(Cl)cc1Cl [Chloropyriphos, O,O-diethyl-O-3,5,6-trichloro-2-pyridyl-phosphorothioate] | 0 | 1 | 4 | 1 | 4 | 4 | 3 | 4 | 4 | 4 | 4 | 4 | 4 | 4 | 4 |
| CNC(=O)c1cc(Cl)cc(C)c1NC(=O)c1cc(Br)nn1-c1ncccc1Cl [Test Compound, 3-bromo-N-[4-chloro-2-methyl-6-[(methylamino)carbonyl]phenyl]-1-(3-chloro-2-pyridinyl)-1H-pyrazole-5-carboxamide] | 0 | 0 | 0 | 0 | 0 | 1 | 0 | 0 | 2 | 0 | 0 | 2 | 0 | 0 | 3 |
